According to US9777014B2, “Tetrahydro-2H-pyrano[3,2-C]isochromene-6-ones and analogs for the treatment of inflammatory disorders” (Council of Scientific & Industrial Research, priority 2013, dated 2017):
“Also recorded” adds a separate entry of the source.

Columns and labels:
nitric oxide (NO) = assay: Nitric oxide (NO) in serum, in-vivo LPS-induced model (Griess assay); design: species or system Balb/c mice
From the text: (§1) Macrophages are the main source of cytokines in inflammation. Lipopolysaccharides LPS may stimulate macrophages to produce large quantities of proinflammatory cytokines that promote inflammation. In this study, we investigated the effect of compounds 1-3 on the expression and secretion of cytokines (TNF-α/IL-6) in vivo in cell supernatant and serum. For this study, male Balb/c mice (5-6 weeks of age) were maintained under pathogen-free conditions in an animal housing unit in a temperature-controlled (23±2° C.) and light-controlled (12 h light/dark cycle) room. Animals were provided standard rodent chow and water ad libitum. Female Balb/C mice (8-10 weeks) were obtained from animal house, 3 or 4 per cage with a 12 h light/dark cycle, provided standard water ad libitum, and acclimated to their environment at least a week before the start of experiments. One hour prior to the start of each experiment, feed and water were removed from the cages. Mice were treated with 10 mg/kg and 100 mg/kg of compounds 1-3 orally over a period of 5 days. LPS 10 μg/ml was injected and blood as well macrophages were collected. The dose was selected based on in vitro result.
(§2) Measurement of in vivo serum levels of TNF-α and IL-6: The mice were divided into 4 groups: no treatment group, injected with phosphate buffered saline (PBS); LPS only; LPS+Dexamethasone (0.05 μg/ml); or LPS+compound 1 at 10 and 100 μM doses (n=6 for each group). Groups were pretreated orally with 200 μl of PBS, dexamethasone or compounds 1, 2, 3 for 45 min. Lipopolysaccharide (100 nM) was then administered (200 μL) i.p for treatment groups, and RPMI was administered i.p for the negative control group.
NO determination by Griess assay: NO production was indirectly assessed by measuring the nitrite level in the cultured media and serum determined by a colorimetric method based on the griess reaction. The cells were incubated with cinnamic aldehyde, cinnamic alcohol, cinnamic acid, coumarin (0, 6.25, 12.5, 25, and 50 μM) in presence of LPS (100 ng/mL) at 37° C. for 24 h. Then, cells were dispensed into 96-well plates, and […] of each supernatant was mixed with the same volume of griess reagent (1% sulfanilamide, 0.1% naphthyl ethylenediamine dihydrochloride and 5% phosphoric acid) and incubated at room temperature for 10 min., the absorbance was measured at 540 nm with a Micro-Reader (Molecular Devices, Orleans Drive, Sunnyvale, Calif.). Serum samples were diluted four times with distilled water and deproteinized by adding 1/20 volume of zinc sulphate (300 g/L) to final concentration of 15 g/L. After centrifugation at 10,000×g for 5 min at room temperature, 100 μL supernatant was applied to a microtitre plate well, followed by 100 μL of Griess reagent. After 10 min of color development at room temperature, the absorbance was measured at 540 nm with a Micro-Reader. By using sodium nitrite to generatea standard curve, the concentration of nitrite was measured by absorbance at 540 nm (J. Ethnopharmacology, 2011, 135, 545-552).

IL-4 = IL-4 production in stimulated splenocytes; format: cell-based; settings: at low micromolar to nanomolar concentrations
T-cell = assay: Effect on T-cell proliferation (Con-A stimulated spleen cells, MTT); format: cell-based; settings: for inhibition of T-cell proliferation (in words): 0.1 μM-100 μM tested; for IC50: T-cell, Con-A stimulated spleen cells, 72 hrs, MTT
Description: Compounds provided in present invention were evaluated for their effect on T-cell proliferation. The protocol used for this bioassay is as follows: A single spleen cell suspension was prepared under sterile conditions and suspended in complete medium RPMI 1640 containing 10% Fetal calf serum (FCS). Spleenocytes were seeded into 4-5 wells of a 96-well flat bottom microtitre plate (Nunc) at (2×10^6 cells/ml). Thereafter, Concanavalin (Con-A) in the final concentration of 2.5 μg/well was added to stimulate T-cell, or LPS in the final concentration of 1 μg/ml was added to stimulate B-cell in the respective wells. Variable concentrations of compounds of the present invention (0.1 μM-100 μM) were added. Thereafter, the plates were incubated at 37° C. in 95% humidity at 5% CO2 in a CO2 incubator for 72 hrs. After 72 hours, 50 μl of MTT solution (5 mg/ml) was added to each well and the plates were incubated for 4 h. Thereafter, plates were centrifuged (400×g, 5 min.) and the untransformed MTT was removed. 200 μl of DMSO (192 μl with 8 μl 1N HCl) was added to each well, and the absorbance was determined in an ELISA reader at 570 nm after 15 min (Life Sci. 2007, 80, 1525-1538).

IL-6 [1] = assay: IL-6 in cell supernatant of macrophages, ex vivo LPS-induced model; design: species or system Balb/c mice
From the text: as §1
(§3) Ex vivo determination of TNF-α, IL-6 & IL-1β in cell supernatant: Blood for serum cytokines production was collected from each treated and untreated animals before the collection of macrophages from peritoneal cavity. Cells were seeded in 96-well plates at 5×10^5 cells mL^−1. Cells were then stimulated with 1 μg mL^−1 LPS for 4 hrs. The cell supernatant was stored at −80° C. The production of TNF-α, IL-6, IL-1β and NO in macrophages cell supernatants of LPS-challenged mice were measured by commercial ELISA kits (B. D. Pharmingenin; R&D systems, Inc., Minneapolis, Minn., USA) and cytokine concentration was determined (J. Am. College Nutr. 2004, 23, 71-78).

IL-6 [2] = assay: IL-6 in serum, in-vivo LPS-induced model; design: species or system Balb/c mice
From the text: as §1, §2
(§4) Ex vivo TNF-α and IL-6 determination by ELISA: Blood was allowed to clot overnight at 4° C. Serum was analyzed for IL-6, TNF-α, and IL-1β by ELISA. IL-6 analysis was performed using purified and biotin-conjugated rat anti-mouse IL-6 antibodies from PharMingen (San Diego, Calif.) as described previously. Streptavidin—peroxidase (Sigma) and 3,3′,5,5′-tetramethylbenzidine (TMB, Fluka, Ronkonkoma, N.Y.) were used for detection. Absorbance was read at 450 nm using a Vmax™ Kinetic Microplate Reader (Molecular Devices, Menlo Park, Calif.). For TNF-α analysis the OptEIA Set: Mouse TNF-α (Mono/Poly) kit was employed (PharMingen) (J. Immunol. Methods 1983, 65, 55-63).

IL-1β = IL-1β production in stimulated splenocytes; format: cell-based; settings: at low micromolar to nanomolar concentrations
TNF-α [3] = assay: TNF-α production in Con A/LPS stimulated splenocytes (ELISA); format: cell-based; settings: for IC50: Splenocyte, splenocytes, Con A or LPS, 72 h, ELISA; for inhibition of TNF-α production (in words): at low micromolar to nanomolar concentrations
Description: (§5) Splenocytes were seeded into three to four wells of a 96-well flat-bottom microtiter plate (Nunc) at 2×10^6 cells/ml. Cells were incubated with different concentrations of compounds (0.1 μM-100 μM) along with Con A (2.5 μg/well) or LPS (1 μg/ml) for 72 h at 37° C. with 5% CO2 in CO2 incubator. The culture supernatants were harvested and the measurement of cytokines (TNF-α and IL-6) in the culture supernatants was carried out using commercial kits as per manufacturer's instructions by using ELISA kits (R&D, USA) (Life Sci. 2007, 80, 1525-1538; J. Immunol. Methods 1983, 65, 55-63).

IL-6 [4] = assay: IL-6 production in Con A/LPS stimulated splenocytes (ELISA); format: cell-based; settings: for IC50: Splenocyte, splenocytes, Con A or LPS, 72 h, ELISA; for inhibition of IL-6 production (in words): at low micromolar to nanomolar concentrations
Description: as §5

TNF-α [5] = assay: TNF-α in cell supernatant of macrophages, ex vivo LPS-induced model; design: species or system Balb/c mice
From the text: as §1, §3

TNF-α [6] = assay: TNF-α in serum, in-vivo LPS-induced model; design: species or system Balb/c mice; settings: for TNF-α in serum: in-vivo LPS-induced model; for activity against TNF-α in in-vivo LPS model compared with bergenin (1): Table 3, serum
From the text: as §1, §2, §4

IC50 (TNF-α [3]) [nM] | IC50 (IL-6 [4]) [nM] | Structure (SMILES) | NO in serum (nitric oxide (NO); Dose 10 (μM as printed)) [µM] | NO in serum (nitric oxide (NO); Dose 100 (μM as printed)) [µM] | IC50 (T-cell) [nM] | IL-6 in cell supernatant of macrophages (IL-6 [1]; Dose 10 (μM as printed)) [ng/mL] | IL-6 in cell supernatant of macrophages (IL-6 [1]; Dose 100 (μM as printed)) [ng/mL] | IL-6 in serum (IL-6 [2]; Dose 10 (μM as printed)) [ng/mL] | IL-6 in serum (IL-6 [2]; Dose 100 (μM as printed)) [ng/mL] | TNF-α in cell supernatant of macrophages (TNF-α [5]; Dose 10 (μM as printed)) | TNF-α in cell supernatant of macrophages (TNF-α [5]; Dose 100 (μM as printed)) [pg/mL] | TNF-α in serum (TNF-α [6]; Dose 10 (μM as printed)) [pg/mL] | TNF-α in serum (TNF-α [6]; Dose 100 (μM as printed)) [pg/mL] | inhibition of IL-4 production (in words) (IL-4) | inhibition of T-cell proliferation (in words) (T-cell) | inhibition of IL-1β production (in words) (IL-1β) | inhibition of TNF-α production (in words) (TNF-α [3]) | inhibition of IL-6 production (in words) (IL-6 [4]) | activity against TNF-α in in-vivo LPS model compared with bergenin (1) (TNF-α [6]) | further results
630 | < 100 | COc1c(O)cc2c(c1O)[C@@H]1O[C@H](CO)[C@@H](O)[C@H](O)[C@H]1OC2=O [Compound 1, Bergenin, reference compound] | 2.62 ± 0.62 | 3.29 ± 0.88 | 100 | 24.6 ± 6.9 | 53.5 ± 7.5 | 282 ± 98 | 55 ± 12 | 89 ± 6.1 pg/mL | 78 ± 4.9 | 667 ± 208 | 509 ± 185 | – | – | – | – | – | – | inhibition of IL-4 production (in words) (IL-4; listed as Bergenin (1)): showed inhibition; also recorded: most potent; inhibition of T-cell proliferation (in words) (T-cell; listed as Bergenin (1)): showed inhibition; also recorded: most potent; inhibition of IL-1β production (in words) (IL-1β; listed as Bergenin (1)): showed inhibition; also recorded: most potent; inhibition of TNF-α production (in words) (TNF-α [3]; listed as Bergenin (1)): showed inhibition; also recorded: most potent; inhibition of IL-6 production (in words) (IL-6 [4]; listed as Bergenin (1)): showed inhibition; also recorded: most potent
< 100 | < 100 | CCN(CC)Cc1c(O)c(OC)c(O)c2c1C(=O)OC1C2OC(CO)C(O)C1O (centres unmarked) [Compound 2, 7-((Diethylamino)methyl)-2,3,4,4a-tetrahydro-3,4,8,10-tetrahydroxy-2-(hydroxymethyl)-9-methoxypyrano[3,2-c]isochromen-6(10bH)-one] | 5.0 ± 0.80 | 3.0 ± 0.73 | < 100 | 41.4 ± 8.9 | 17.3 ± 3.0 | 102 ± 40 | 275 ± 65 | 102 ± 12^ pg/ml | 89 ± 6.4 | 585 ± 192 | 388 ± 115 | most potent | most potent | most potent | most potent | most potent | better activity than bergenin (1) | –
< 100 | < 100 | COc1c(O)c(CN2CCN(C)CC2)c2c(c1O)C1OC(CO)C(O)C(O)C1OC2=O (centres unmarked) [Compound 3, 2,3,4,4a-Tetrahydro-3,4,8,10-tetrahydroxy-2-(hydroxymethyl)-9-methoxy-7-((4-methylpiperazin-1-yl)methyl)pyrano[3,2-c]isochromen-6(10bH)-one] | 2.87 ± 0.73 | 1.24 ± 0.25 | 6100 | 12.1 ± 2.81 | 21.1 ± 3.2 | 282 ± 98 | 58 ± 12 | 78 ± 4.9 pg/mL | 84 ± 6.7 | 672 ± 221 | 398 ± 62 | most potent | most potent | most potent | most potent | most potent | better activity than bergenin (1) | –
